Experimental data reported in the Deep4Chem optical property database.

Test: solvent given as SMILES

## CCOc1cc2c(cc1/C=C/C1=CC(=C(C#N)C#N)CC(C)(C)C1)c1ccccc1n2CC
In C1CCOC1
  absorption maximum: 476 nm
In CC#N
  absorption maximum: 474 nm
In CCO
  absorption maximum: 480 nm
In CCOC(C)=O
  absorption maximum: 469 nm
In CN(C)C=O
  absorption maximum: 487 nm
In CS(C)=O
  absorption maximum: 491 nm
In Cc1ccccc1
  absorption maximum: 474 nm
In ClC(Cl)Cl
  absorption maximum: 480 nm
In ClCCl
  absorption maximum: 479 nm

## Brc1cnc(-c2ccc(N(c3ccccc3)c3ccccc3)cc2)s1
In CO
  absorption maximum: 369 nm

## CCCCCCCc1ccc(C2=[N+]3C(=C4c5cc(OCC(CC)CC)c(-c6ccc(CCCCCCC)o6)n5[B-](F)(F)[n+]5c4n(c4cc(C(C)(C)C)ccc45)[B-]3(F)F)C=C2OCC(CC)CC)o1
In C1CCOC1
  absorption maximum: 816 nm
In ClCCl
  absorption maximum: 826 nm

## O=[N+]([O-])c1ccc(F)cc1C1CC(c2cccc3ccccc23)=NN1c1ccccc1 (stereo unspecified)
In C1CCCCC1
  absorption maximum: 365 nm
In C1CCOC1
  absorption maximum: 374 nm
In C1COCCO1
  absorption maximum: 372 nm
In CC#N
  absorption maximum: 367 nm
In CC(C)O
  absorption maximum: 370 nm
In CCOC(C)=O
  absorption maximum: 371 nm
In CCOCC
  absorption maximum: 363 nm
In CO
  absorption maximum: 372 nm
In Cc1ccccc1
  absorption maximum: 368 nm
In ClC(Cl)Cl
  absorption maximum: 363 nm
In O
  absorption maximum: 375 nm

## FC(F)(F)c1ccc(C2=CC3=c4cc(-c5ccc(C(F)(F)F)cc5)c5nc(C(F)(F)C(F)(F)C(F)(F)F)nc6c(-c7ccc(C(F)(F)F)cc7)cc(c4c65)C4=CC(c5ccc(C(F)(F)F)cc5)=C5N=C(C(F)(F)C(F)(F)C(F)(F)F)N=C2C5C43)cc1 (stereo unspecified)
In C1CCOC1
  absorption maximum: 489 nm

## O=C1Cc2cc3c(cc2CCCc2ccc(cc2)CCC3)CC(=O)Cc2ccc(c3nsnc23)C1
In C1CCCCC1
  absorption maximum: 401 nm
In CC#N
  absorption maximum: 404 nm
In ClC(Cl)Cl
  absorption maximum: 404 nm

## Oc1ccc(Br)cc1-c1nc2c(c3c1-c1ccccc1CC3)-c1ccccc1CC2
In ClCCl
  absorption maximum: 345 nm

## O=c1c2cc(F)c(O)cc2n(Cc2ccccc2)c2cc(O)c(F)cc12
In CCO
  absorption maximum: 381 nm

## CN(C)c1ccc(/C=C/c2ccc(C#N)cc2)cc1
In C1CCOC1
  absorption maximum: 385 nm
In CC#N
  absorption maximum: 383 nm
In CCCC#N
  absorption maximum: 386 nm
In CCCCCC
  absorption maximum: 378 nm
In CCCCOCCCC
  absorption maximum: 380 nm
In CCO
  absorption maximum: 383 nm
In CCOCC
  absorption maximum: 380 nm

## CCN(CC)c1ccc2cc3c([o+]c2c1)/C(=C/Nc1ccccc1)CCC3
In CCO
  absorption maximum: 605 nm
In ClC(Cl)Cl
  absorption maximum: 616 nm
In ClCCl
  absorption maximum: 615 nm

## Nc1nc2c(ncn2[C@H]2C[C@H](O)[C@@H](CO)O2)c(=O)[nH]1
In O
  absorption maximum: 274 nm

## CCCCCCCCn1c(=O)c2cc3cc4cc5c(=O)n(CCCCCCCC)c(=O)c5cc4c(C#Cc4ccc(N(c5ccccc5)c5ccccc5)cc4)c3cc2c1=O
In ClC(Cl)Cl
  absorption maximum: 515 nm

## COc1ccc2oc(=N)c(C#N)cc2c1
In ClCCl
  absorption maximum: 388 nm

## Cc1cc(Br)cn(Cn2cccc(C)c2=O)c1=N
In CC(=O)O
  absorption maximum: 310 nm

## Clc1ccc(N2c3sc4ccccc4c3Sc3c2sc2ccccc32)cc1
In ClCCl
  absorption maximum: 418 nm

## Clc1ccc(N2c3sc4ccccc4c3Sc3sc4ccccc4c32)cc1
In ClCCl
  absorption maximum: 310 nm

## COc1ccc(-c2c(-c3ccc(C)cc3)c3n(c2-c2ccc(C)cc2)[B-](F)(F)[N+]2=C(c4ccc(C)cc4)C(/C=C/C(=O)OC4CC[C@@]5(C)C(=CC[C@H]6[C@@H]7CC[C@H]([C@H](C)CCCC(C)C)[C@@]7(C)CC[C@@H]65)C4)=C(c4ccc(C)cc4)C2=N3)cc1 (stereo partly specified)
In ClC(Cl)Cl
  absorption maximum: 662 nm

## Fc1ccc(C#Cc2nc(C#Cc3ccc(F)cc3)c(C#Cc3ccc(F)cc3)c(C#Cc3ccc(F)cc3)c2C#Cc2ccc(F)cc2)cc1
In ClCCl
  absorption maximum: 407 nm

## Cc1cccn2c1cc1c3ccccc3nc(-c3cccs3)c12
In CS(C)=O
  absorption maximum: 398 nm

## c1ccc(-c2nc(-c3ccccc3)nc(-c3ccc(N4c5ccccc5C5(c6ccccc6-c6ccccc65)c5ccccc54)cc3)n2)cc1
In Cc1ccccc1
  absorption maximum: 399.05 nm

## CN(C)c1ccc(-c2ccc(-c3ccc(N(C)C)cc3)c3nc(-c4ccccc4)c(-c4ccccc4)nc23)cc1
In ClC(Cl)Cl
  absorption maximum: 443 nm

## CC(C)(C)c1ccc(-n2c(-c3ccc(N(c4ccc(-c5ccc(N(c6ccc(-c7nc8c9ccccc9c9ccccc9c8n7-c7ccc(C(C)(C)C)cc7)cc6)c6ccc(-c7nc8c9ccccc9c9ccccc9c8n7-c7ccc(C(C)(C)C)cc7)cc6)cc5)cc4)c4ccc(-c5nc6c7ccccc7c7ccccc7c6n5-c5ccc(C(C)(C)C)cc5)cc4)cc3)nc3c4ccccc4c4ccccc4c32)cc1
In ClCCl
  absorption maximum: 377 nm

## Cc1cn(C(F)(F)F)c(=O)[nH]c1=O
In CC#N
  absorption maximum: 255 nm

## N#Cc1ccc(-c2cc(-c3ccc(N4CCCC4)cc3)nc(-c3ccccc3)n2)cc1
In ClC(Cl)Cl
  absorption maximum: 385 nm

## CC(C)(C)c1ccc2c(c1)c1cc(C(C)(C)C)ccc1n2-c1ccc(C(=O)c2ccncc2)cc1
In C1CCOC1
  absorption maximum: 367.32 nm
In CCCCCC
  absorption maximum: 372.17 nm
In Cc1ccccc1
  absorption maximum: 373.66 nm
In ClCCl
  absorption maximum: 377.92 nm

## CN(C)c1ccc(/C=C/C(=C(C#N)C#N)c2ccc3c4c(cccc24)CC3)cc1
In C1CCOC1
  absorption maximum: 488 nm
In CC#N
  absorption maximum: 494 nm
In CC(C)=O
  absorption maximum: 492 nm
In CCOC(C)=O
  absorption maximum: 497 nm
In CN(C)C=O
  absorption maximum: 505 nm
In CO
  absorption maximum: 496 nm
In Cc1ccccc1
  absorption maximum: 487 nm
In ClC(Cl)Cl
  absorption maximum: 483 nm

## COc1ccc2c(c1)c1ccc3cccc4c5cccc6oc(=O)c2c(c65)c1c34
In C1CCOC1
  absorption maximum: 425 nm

## CCCCCOc1ccc2c(c1)c1ccc3cccc4c5cccc6oc(=O)c2c(c65)c1c34
In C1CCOC1
  absorption maximum: 426 nm

## N#Cc1cc(C#N)c(-n2c3ccccc3c3ccccc32)cc1-n1c2ccccc2c2ccccc21
In Cc1ccccc1
  absorption maximum: 374 nm

## CC1(C)CC(NCc2ccc3ccc4cccc5ccc2c3c45)CC(C)(C)N1[O]
In C1CCCCC1
  absorption maximum: 342 nm
In CC#N
  absorption maximum: 341 nm
In CO
  absorption maximum: 340 nm
In ClC(Cl)Cl
  absorption maximum: 344 nm

## COc1ccc(-c2oc3cccc4c5c(-c6ccc(OC)c(OC)c6)c(=N)oc6cccc(c2c34)c65)cc1OC
In ClC(Cl)Cl
  absorption maximum: 410 nm

## CC1=C(C#Cc2ccc([Si](c3ccccc3)(c3ccccc3)c3ccccc3)cc2)C(C)=[N+]2C1=C(c1ccccc1)c1c(C)c(C#Cc3ccc([Si](c4ccccc4)(c4ccccc4)c4ccccc4)cc3)c(C)n1[B-]2(F)F
In ClCCl
  absorption maximum: 575 nm

## CC(C)(C)c1ccc(-c2nc3c4ccc(-c5ccccc5)cc4c4cc(-c5ccccc5)ccc4c3n2-c2ccc(C(C)(C)C)cc2)cc1
In C1CCOC1
  absorption maximum: 331 nm
In C1COCCO1
  absorption maximum: 333 nm
In CC#N
  absorption maximum: 329 nm
In CCCCCC
  absorption maximum: 331 nm
In CCCCOCCCC
  absorption maximum: 331 nm
In CCN(CC)CC
  absorption maximum: 332 nm
In CCOC(C)=O
  absorption maximum: 329 nm
In CCOCC
  absorption maximum: 330 nm
In CN(C)C=O
  absorption maximum: 331 nm
In Cc1ccccc1
  absorption maximum: 333 nm
In ClC=C(Cl)Cl
  absorption maximum: 332 nm
In ClCCl
  absorption maximum: 330 nm

## O=c1c2cc(F)c(N3CCOCC3)cc2sc2cc(N3CCOCC3)c(F)cc12
In CCO
  absorption maximum: 361 nm

## COc1ccc(C2=C(Br)C(c3ccccc3)=[N+]3C2=Nc2c(-c4ccc(OC)cc4)c(Br)c(-c4ccccc4)n2[B-]3(F)F)cc1
In Cc1ccccc1
  absorption maximum: 654 nm

## CC(C)(C)C1Nc2c(Br)cc(Br)cc2C(=O)N1Cc1ccccc1 (stereo unspecified)
In CC#N
  absorption maximum: 360 nm
In CCCCCCCCCCCCCCCC
  absorption maximum: 351 nm
In CO
  absorption maximum: 368 nm
In ClC(Cl)Cl
  absorption maximum: 359 nm
In c1ccccc1
  absorption maximum: 356 nm

## CCN1c2ccc(C3=CC(c4ccccc4)=[O+][B-](F)(F)O3)cc2Sc2cc(C3=CC(c4ccccc4)=[O+][B-](F)(F)O3)ccc21
In ClCCl
  absorption maximum: 525 nm

## O=C1c2ccc3c4ccc5c6c(ccc(c7ccc(c2c37)C(=O)N1c1ccncc1)c64)C(=O)N(c1ccncc1)C5=O
In C1CCOC1
  absorption maximum: 522 nm
In C1COCCO1
  absorption maximum: 525 nm
In CC(C)=O
  absorption maximum: 519 nm
In CC(C)O
  absorption maximum: 525 nm
In CCCCO
  absorption maximum: 525 nm
In CCO
  absorption maximum: 524 nm
In CCOC(C)=O
  absorption maximum: 519 nm
In CN(C)C=O
  absorption maximum: 524 nm
In CO
  absorption maximum: 525 nm
In CS(C)=O
  absorption maximum: 528 nm
In ClC(Cl)(Cl)Cl
  absorption maximum: 524 nm
In ClC(Cl)Cl
  absorption maximum: 530 nm

## CCOC(=O)c1c2c3c(ccc([N+](=O)[O-])c3c3cc4ccccc4cc13)N(C)C2=O
In CC#N
  absorption maximum: 394 nm

## Cc1ccc(N/C=C/C=[NH+]c2ccc(C)cc2)cc1
In CS(C)=O
  absorption maximum: 376 nm

## CCCCCCCCOc1ccc(-c2c3c4n(c(-c5ccc(OCCCCCCCC)cc5)c3c3n2[B-](F)(F)[n+]2ccccc2N=3)[B-](F)(F)[n+]2ccccc2N=4)cc1
In ClC(Cl)Cl
  absorption maximum: 638 nm

## CC(O)CC1=N/C(=C\c2cccc(N(C)C)c2)C(=O)N1C (stereo unspecified)
In C1CCOC1
  absorption maximum: 356 nm
In CC#N
  absorption maximum: 355 nm
In CCCCCC
  absorption maximum: 352 nm

## CCC12C(=C3C(=C4c5ccc(-c6ccc(C(C)=O)cc6)cc5S(=O)(=O)C41CC)C(F)(F)C(F)(F)C3(F)F)c1ccc(-c3ccc(C(C)=O)cc3)cc1S2(=O)=O (stereo unspecified)
In C1COCCO1
  absorption maximum: 456 nm

## Cc1ccc(/C=C/C(F)(F)F)c(N)c1
In C1CCOC1
  absorption maximum: 346 nm

## F[B-]1(F)OC(c2ccc(N3CCCC3)cc2)=Cc2cccc[n+]21
In ClC(Cl)Cl
  absorption maximum: 438 nm

## CCCCN(CCCC)c1ccc(/C=C/c2ccc3nc(/C=C/c4nc5ccc(/C=C/c6ccc(N(CCCC)CCCC)cc6)cc5n(CCC)c4=O)c(=O)n(CCC)c3c2)cc1
In C1COCCO1
  absorption maximum: 528 nm
In ClCCl
  absorption maximum: 549 nm

## c1ccc(/C(=C(\c2ccccc2)c2cc(-c3ccc(-c4ccccc4)cc3)ccc2-c2ccc(-c3ccccc3)cc2)c2cc(-c3ccc(-c4ccccc4)cc3)ccc2-c2ccc(-c3ccccc3)cc2)cc1
In C1CCOC1
  absorption maximum: 302 nm

## COc1cc2c(cc1/C=C/C1=CC(=C(C#N)C#N)CC(C)(C)C1)c1ccccc1n2C
In C1CCOC1
  absorption maximum: 475 nm
In CC#N
  absorption maximum: 477 nm
In CCO
  absorption maximum: 479 nm
In CCOC(C)=O
  absorption maximum: 462 nm
In CN(C)C=O
  absorption maximum: 484 nm
In CS(C)=O
  absorption maximum: 489 nm
In Cc1ccccc1
  absorption maximum: 468 nm
In ClC(Cl)Cl
  absorption maximum: 485 nm
In ClCCl
  absorption maximum: 478 nm

## CCCOc1ccc(/C=C/C=C/C=C/c2ccc([N+](=O)[O-])cc2)cc1
In CC1CCCCC1
  absorption maximum: 414 nm
In CC#N
  absorption maximum: 413 nm
In Cc1ccccc1
  absorption maximum: 420 nm
In ClCCl
  absorption maximum: 421 nm
